Laboratory results as given in US20240368163A1, “COMPOUNDS AND METHODS FOR MODULATING SPLICING” (REMIX THERAPEUTICS INC., priority 2021, published 2024).
Where two headings read alike, the source gives them in different places.

Tests used:
Assay type in all cases: cell-based, human
Target C [1] = assay: Splicing RT-qPCR panel, Target C canonical junction (CJ) mRNA; settings: Homo sapiens, read-out: Target C IC50 (decrease in CJ mRNA levels)
Procedure, shortened: (§1)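 First, A673 cells adhered 24 h, while K562 cells were plated directly. Next, compounds were added as an 11-point 3-fold series from 10 uM for 24 h. Finally, lysates went to RT-qPCR, with 2^(−ΔΔCt) values converted to percentage response.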

HTT [2] = assay: Splicing RT-qPCR assay, HTT mRNA canonical junction (CJ) and alternative junction (AJ); settings: Homo sapiens; for AC50: increase in AJ mRNA
Procedure, shortened: as §1

MYB [3] = assay: Splicing RT-qPCR assay, MYB mRNA canonical junction (CJ) and alternative junction (AJ); settings: Homo sapiens; for AC50: increase in AJ mRNA
Procedure, shortened: as §1

MYB [4] = assay: HiBiT protein abundance assay, MYB; settings: Homo sapiens, K562, 24 h, modified K562 cells
Procedure, shortened: (§2)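 K562 cells with endogenous HiBiT-tagged target were treated 24 h at 37 °C with compound (10-point 3-fold dilution, top 10 μM final, DMSO ≤0.25%). Lytic LgBiT luminescence was normalized to unmodified K562 (baseline) and DMSO-treated tagged cells; IC50 interpolated at 50% from four-parameter logistic fit.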

HTT [5] = assay: HiBiT protein abundance assay, HTT; settings: Homo sapiens, K562, 24 h, modified K562 cells
Procedure, shortened: as §2

Target C [6] = assay: HiBiT protein abundance assay, Target C; settings: Homo sapiens, K562, 24 h, modified K562 cells
Procedure, shortened: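 HiBiT knock-in K562-derived cells, 10000 cells/well, were treated 24 h at 37 °C with a 10-point 3-fold dilution series (top 10 μM final, DMSO ≤0.25%). Lytic HiBiT luminescence was normalized to unmodified K562 and DMSO controls; IC50 was interpolated at 50% from a four-parameter logistic fit.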

SMN2 = assay: Splicing RT-qPCR panel, SMN2 canonical junction (CJ) mRNA; settings: Homo sapiens, read-out: SMN2 IC50 (decrease in CJ mRNA levels)
Procedure, shortened: as §1

[7] = RT-qPCR panel, canonical junction mRNA, compound concentration having 50% response in CJ decrease
[8] = 24 h, decrease in CJ mRNA, A673 or K562 cells, 24 hours treatment, RT-qPCR, read-out: HTT CJ IC50
[9] = 24 h, A673 or K562 cells, 24 hours treatment, RT-qPCR
[10] = RT-qPCR panel, canonical junction mRNA, compound concentration having 50% response in CJ decrease, read-out: HTT IC50 (decrease in CJ mRNA levels)
[11] = 24 h, decrease in CJ mRNA, A673 or K562 cells, 24 hours treatment, RT-qPCR, read-out: MYB CJ IC50
[12] = RT-qPCR panel, canonical junction mRNA, compound concentration having 50% response in CJ decrease, read-out: MYB IC50 (decrease in CJ mRNA levels)
[13] = gene panel, CJ qPCR, protocol of Example 142
[14] = gene panel, CJ qPCR, protocol of Example 142, read-out: HTT IC50 (decrease in CJ mRNA levels)
[15] = gene panel, CJ qPCR, protocol of Example 142, read-out: MYB IC50 (decrease in CJ mRNA levels)

SMILES | IC50 (Target C [1]; [7]) [µM] | IC50 (HTT [2]; [8]) [µM] | AC50 (HTT [2]; [9]) [µM] | IC50 (HTT [2]; [10]) [µM] | IC50 (MYB [3]; [11]) [µM] | AC50 (MYB [3]; [9]) [µM] | IC50 (MYB [3]; [12]) [µM] | IC50 (MYB [4]; Table 13A) [µM] | IC50 (HTT [5]; Table 13A) [µM] | IC50 (Target C [6]; Table 13A) [µM] | IC50 (SMN2; [7]) [µM] | IC50 (Target C [1]; [13]) [µM] | IC50 (HTT [2]; [14]) [µM] | IC50 (MYB [3]; [15]) [µM] | IC50 (MYB [4]; Table 13B) [µM] | IC50 (HTT [5]; Table 13B) [µM] | IC50 (Target C [6]; Table 13B) [µM] | IC50 (SMN2; [13]) [µM]
Cn1cc(-c2c(F)cc(-c3ccc(NC4CCNCC4)nn3)c3[nH]ncc23)cn1 [Compound 338] | > 10 | 1 to 10 | 1 to 10 | 1 to 10 | 1 to 10 | 1 to 10 | 1 to 10 | 1 to 10 | 1 to 10 | 1 to 10 | 0.1 to 1 | – | – | – | – | – | – | –
Cc1nc(-c2ccc(N(C)[C@@H]3C[C@H]4CC[C@@H](C3)N4)nn2)ccc1-c1cn[nH]c1 [Compound 912] | – | – | – | – | – | – | – | – | – | – | – | 1 to 10 | 1 to 10 | 1 to 10 | 1 to 10 | 1 to 10 | 1 to 10 | 0.1 to 1
COc1cc(-c2ccc(-c3ccc(N(C)C4CC(C)(C)NC(C)(C)C4)nn3)c3ncsc23)cnn1 [Compound 233] | 0.1 to 1 | 0.1 to 1 | 0.1 to 1 | 0.1 to 1 | 0.1 to 1 | 0.1 to 1 | 0.1 to 1 | 0.1 to 1 | 0.1 to 1 | 0.1 to 1 | 0.1 to 1 | – | – | – | – | – | – | –
c1nc2c(-c3cn[nH]c3)ccc(-c3ccc(N4CCNCC4)nn3)c2s1 [Compound 185] | > 10 | > 10 | 1 to 10 | > 10 | 1 to 10 | > 10 | 1 to 10 | 1 to 10 | 1 to 10 | 1 to 10 | 0.1 to 1 | – | – | – | – | – | – | –
c1nc2c(-c3cn[nH]c3)ccc(-c3cnc(N4CCN[C@H](C5CC5)C4)nn3)c2s1 [Compound 451] | 1 to 10 | – | – | 1 to 10 | – | – | 1 to 10 | 1 to 10 | 1 to 10 | 1 to 10 | 1 to 10 | – | – | – | – | – | – | –
CN(c1ncc(-c2ccc(-c3cn[nH]c3)c3ncsc23)nn1)[C@@H]1C[C@]2(C)CC[C@](C)(C1)N2 [Compound 425, (1S,5R)—N,1,5-trimethyl-N-[6-[4-(1H-pyrazol-4-yl)-1,3-benzothiazol-7-yl]-1,2,4-triazin-3-yl]-8-azabicyclo [3.2.1] octan-3-amine] | 0.1 to 1 | 0.1 to 1 | 0.1 to 1 | 0.1 to 1 | 1 to 10 | > 10 | 1 to 10 | 1 to 10 | 0.1 to 1 | 0.1 to 1 | 1 to 10 | – | – | – | – | – | – | –
CNc1nc(-c2ccc(N(C)[C@@H]3C[C@H]4CC[C@@H](C3)N4)nn2)ccc1-c1cn[nH]c1 [Compound 936] | – | – | – | – | – | – | – | – | – | – | – | 0.1 to 1 | 0.1 to 1 | 1 to 10 | 0.1 to 1 | 0.1 to 1 | 0.1 to 1 | < 0.1
COc1cc(-c2ccc(-c3ccc(N(C)C4CC(C)(C)NC(C)(C)C4)nn3)c3ncsc23)ccn1 [Compound 177] | > 10 | > 10 | > 10 | > 10 | 1 to 10 | > 10 | 1 to 10 | 1 to 10 | 1 to 10 | 1 to 10 | 1 to 10 | – | – | – | – | – | – | –
CN(c1ccc(-c2ccc(-c3cn[nH]c3)c3cn[nH]c23)nn1)[C@H]1[C@@H]2CNC[C@@H]21 [Compound 301] | > 10 | > 10 | > 10 | > 10 | > 10 | > 10 | > 10 | 1 to 10 | > 10 | > 10 | > 10 | – | – | – | – | – | – | –
Cn1cc(-c2ccc(-c3ccc(O[C@@H]4C[C@H]5CC[C@@H](C4)N5)nn3)c3[nH]ncc23)nn1 [Compound 323, 7-{6-[(1R,3S,5S)-8-azabicyclo[3.2.1]octan-3-yloxy]pyridazin-3-yl}-4-(1-methyl-1,2,3-triazol-4-yl)-1H-indazole] | 1 to 10 | 0.1 to 1 | 0.1 to 1 | 0.1 to 1 | 0.1 to 1 | 0.1 to 1 | 0.1 to 1 | 0.1 to 1 | 0.1 to 1 | 1 to 10 | < 0.1 | – | – | – | – | – | – | –
